Results as given in ChEMBL document CHEMBL3244129, “Quinolone antimicrobial agents. 1. Versatile new synthesis of 1-alkyl-1,4-dihydro-4-oxo-3-quinolinecarboxylic acids” (1978).
Values after ≈ are worked out from the molar mass of the structure shown.

Key:
Candida albicans = assay: Antimicrobial activity against Candida albicans 10231 assessed as growth inhibition by agar dilution-streak method; assay type: functional
Salmonella gallinarum = assay: Antimicrobial activity against Salmonella gallinarum 9184 assessed as growth inhibition by agar dilution-streak method
Escherichia coli = assay: Antimicrobial activity against Escherichia coli 9637 assessed as growth inhibition by agar dilution-streak method; assay type: functional
Klebsiella pneumoniae = assay: Antimicrobial activity against Klebsiella pneumoniae 10031 assessed as growth inhibition by agar dilution-streak method; assay type: functional
[1] = system: Mycolicibacterium smegmatis; assay: Antimicrobial activity against Mycobacterium smegmatis 607 assessed as growth inhibition by agar dilution-streak method; assay type: functional
Staphylococcus aureus = assay: Antimicrobial activity against Staphylococcus aureus ATCC […] assessed as growth inhibition by agar dilution-streak method; assay type: functional

CCn1cc(C(=O)O)c(=O)c2ccc(C)cc21
MIC (Candida albicans): > 100 µg/mL | MIC (Salmonella gallinarum): 1.25 µg/mL (≈ 5.41 µM) | MIC (Escherichia coli): 2.5 µg/mL (≈ 10.8 µM) | MIC (Klebsiella pneumoniae): 10 µg/mL (≈ 43.2 µM) | MIC [1]: > 100 µg/mL | MIC (Staphylococcus aureus): 40 µg/mL (≈ 173 µM)

CCn1cc(C(=O)O)c(=O)c2cc(C)ccc21
MIC (Candida albicans): > 100 µg/mL | MIC (Salmonella gallinarum): 20 µg/mL (≈ 86.5 µM) | MIC (Escherichia coli): 20 µg/mL (≈ 86.5 µM) | MIC (Klebsiella pneumoniae): > 100 µg/mL | MIC [1]: > 100 µg/mL | MIC (Staphylococcus aureus): 40 µg/mL (≈ 173 µM)

CCn1cc(C(=O)O)c(=O)c2cccc(C)c21
MIC (Candida albicans): > 100 µg/mL | MIC (Salmonella gallinarum): > 100 µg/mL | MIC (Escherichia coli): > 100 µg/mL | MIC (Klebsiella pneumoniae): > 100 µg/mL | MIC [1]: > 100 µg/mL | MIC (Staphylococcus aureus): > 100 µg/mL

CCn1cc(C(=O)O)c(=O)c2cc(Cl)ccc21
MIC (Candida albicans): > 40 µg/mL | MIC (Salmonella gallinarum): 20 µg/mL (≈ 79.5 µM) | MIC (Escherichia coli): 20 µg/mL (≈ 79.5 µM) | MIC (Klebsiella pneumoniae): 10 µg/mL (≈ 39.7 µM) | MIC [1]: 100 µg/mL (≈ 397 µM) | MIC (Staphylococcus aureus): 100 µg/mL (≈ 397 µM)

CCn1c(O)c(C(=O)O)c(=O)c2cc3c(cc21)OCO3
MIC (Candida albicans): > 100 µg/mL | MIC (Salmonella gallinarum): > 100 µg/mL | MIC (Escherichia coli): > 100 µg/mL | MIC (Klebsiella pneumoniae): > 100 µg/mL | MIC [1]: > 100 µg/mL | MIC (Staphylococcus aureus): > 100 µg/mL

CCn1c(C)c(C(=O)O)c(=O)c2cc3c(cc21)OCO3
MIC (Candida albicans): > 100 µg/mL | MIC (Salmonella gallinarum): > 100 µg/mL | MIC (Escherichia coli): > 100 µg/mL | MIC (Klebsiella pneumoniae): > 100 µg/mL | MIC [1]: > 100 µg/mL | MIC (Staphylococcus aureus): > 100 µg/mL

CCn1cc(C(=O)O)c(=O)c2cc3c(cc21)OCO3 [OXOLINIC ACID]
MIC (Candida albicans): > 40 µg/mL | MIC (Salmonella gallinarum): 1.25 µg/mL (≈ 4.79 µM) | MIC (Escherichia coli): 1.25 µg/mL (≈ 4.79 µM) | MIC (Klebsiella pneumoniae): < 0.625 µg/mL | MIC [1]: > 40 µg/mL | MIC (Staphylococcus aureus): 5 µg/mL (≈ 19.1 µM)
